Assay results published in US7417025B2, “Use of poly-α2,8-sialic acid mimetic peptides to modulate NCAM functions” (Centre National de la Recherche Scientifique, priority 2002, dated 2008).

Assays:
BSA = BSA (Bos taurus, UniProt P02769); assay: Peptide-BSA conjugate ELISA, control wells coated only with blocking solution (BSA); format: binding; settings: biotinylated peptide-BSA conjugate, BSA-blocked wells, no mAb
Excerpt: (§1) • mAb 735 and 30H12 • MaxiSorp™ plates (NUNC) for coating the antibody: ELISA plates • microtiter plates (NUNC) for peptide dilution: dilution plates • Biotinylated peptide-BSA conjugates prepared as above described • Extravidin alkaline phosphatase-avidin conjugate (SIGMA E2636) • p-nitrophenyl-phosphatase alkaline substrate (SIGMA 104-105) 2.1.2) Buffers • PBS pH 7.4 • Blocking solution: 0.5% BSA in PBS • TBS • TBST: TBS containing 0.05% Tween 20 • Extravidin alkaline phosphatase-avidin conjugate solution: 1/5000 in TBST • Alkaline phosphatase substrate solution; 1 tablet in 5 ml 50 mM NaHCO3, 1 mM MgCl2 solution, pH 9.6. • mixed competitor solution: 1 mM colominic acid with a peptide-BSA conjugate gradient in TBST 2.1.3) Method
(§2) Maxisorp™ plate wells were coated with 100 μl mAb solution (25 μg/ml) for 2 h at room temperature. The control wells of the ELISA plates were only coated with the blocking solution. In parallel, the peptide-BSA conjugate dilution plates were blocked with 200 μl blocking solution for 2 h. The antibody coated wells and the control wells were blocked with 200 μl blocking solution for 1 h. In parallel the peptide-BSA conjugate dilution plates were washed 6 times with TBST and 120 μl TBST was added to the wells. An appropriate volume of peptide-BSA conjugate solution was added to the first well and the volume adjusted to 140 μl with TBST. The peptide-BSA conjugate in well one was diluted in the ratio 1/7 by taking 20 μl out of the first well and transferring into the second also to achieve the total volume of 140 μl. This was repeated for the remaining wells. The peptide-BSA conjugate dilutions for the control wells were done the same way. The blocked ELISA plates were washed 6 times with TBST and the peptide-BSA conjugate dilutions or 100 μl of the mixed competitor solution was added to the wells. After incubation for 1 h, the wells were washed 10 times with TBST and 100 μl of the alkaline phosphatase substrate solution was added to the wells. The plates were read out after 10 to 60 min using a microplate reader at 405 nm.
(§3) The specificity of peptide p21 (SEQ ID NO: 1) was investigated in a competition ELISA using biotinylated p21-BSA conjugate and a randomized variant of p21 (p22) conjugate as a control. The results presented in Tables X and XI are expressed as percentage of binding by comparison with peptide p21 at the highest concentration (9.45 10^-5 M) which corresponds to 100% binding.

mAb 735 = assay: Competitive ELISA of biotinylated peptide-BSA conjugates on anti-PSA mAb; format: binding; settings: for Binding of peptide to mAb 735 in competitive ELISA (percentage of binding): biotinylated peptide-BSA conjugate
Excerpt: as §1, with “[…])” for “pH 9.6. • mixed competitor solution: 1 mM colominic acid with a peptide-BSA conjugate gradient in TBST 2.1.3)”
as §2, §3

[1] = peptide-BSA conjugate, in words

Sequence of BSA (P02769 25-607): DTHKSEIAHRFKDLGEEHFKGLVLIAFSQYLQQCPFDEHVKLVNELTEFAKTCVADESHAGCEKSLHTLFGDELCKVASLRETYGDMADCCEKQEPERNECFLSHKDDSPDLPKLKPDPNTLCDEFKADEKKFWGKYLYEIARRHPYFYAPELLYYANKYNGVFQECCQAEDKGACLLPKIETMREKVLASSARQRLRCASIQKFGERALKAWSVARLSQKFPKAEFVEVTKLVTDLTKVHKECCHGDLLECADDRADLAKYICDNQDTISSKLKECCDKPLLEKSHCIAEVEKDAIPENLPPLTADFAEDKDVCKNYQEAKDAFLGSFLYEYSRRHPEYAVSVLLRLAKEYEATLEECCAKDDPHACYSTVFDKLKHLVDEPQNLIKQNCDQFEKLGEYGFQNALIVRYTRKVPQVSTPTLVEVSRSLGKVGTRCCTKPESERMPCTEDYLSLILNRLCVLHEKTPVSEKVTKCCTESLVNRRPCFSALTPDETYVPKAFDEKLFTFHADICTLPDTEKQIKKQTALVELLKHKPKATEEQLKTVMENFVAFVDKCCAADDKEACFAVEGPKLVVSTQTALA

## PDHIFVFSPDLP [p22, reference compound]
BSA; peptide 1.62 10^−9 M
  Binding of peptide to BSA control wells (percentage of binding): 0 ± 0%
BSA; peptide 1.67 10^−5 M
  Binding of peptide to BSA control wells (percentage of binding): 1 ± 1%
BSA; peptide 2.86 10^−9 M
  Binding of peptide to BSA control wells (percentage of binding): 0 ± 0%
BSA; peptide 2.94 10^−6 M
  Binding of peptide to BSA control wells (percentage of binding): 0 ± 0%
BSA; peptide 5.04 10^−10 M
  Binding of peptide to BSA control wells (percentage of binding): 0 ± 0%
BSA; peptide 5.20 10^−7 M
  Binding of peptide to BSA control wells (percentage of binding): 0 ± 0%
BSA; peptide 8.89 10^−11 M
  Binding of peptide to BSA control wells (percentage of binding): 0 ± 0%
BSA; peptide 9.27 10^−8 M
  Binding of peptide to BSA control wells (percentage of binding): 0 ± 0%
BSA; peptide 9.45 10^−5 M
  Binding of peptide to BSA control wells (percentage of binding): 3 ± 1%
mAb 735; peptide 1.62 10^−9 M, + chondroitin sulfate C
  Binding of peptide to mAb 735 in competitive ELISA (percentage of binding): 2 ± 0%
mAb 735; peptide 1.62 10^−9 M, + colominic acid 1 mM
  Binding of peptide to mAb 735 in competitive ELISA (percentage of binding): 0 ± 0%
mAb 735; peptide 1.62 10^−9 M, no competitor
  Binding of peptide to mAb 735 in competitive ELISA (percentage of binding): 0 ± 0%
mAb 735; peptide 1.67 10^−5 M, + chondroitin sulfate C
  Binding of peptide to mAb 735 in competitive ELISA (percentage of binding): 8 ± 1%
mAb 735; peptide 1.67 10^−5 M, + colominic acid 1 mM
  Binding of peptide to mAb 735 in competitive ELISA (percentage of binding): 5 ± 0%
mAb 735; peptide 1.67 10^−5 M, no competitor
  Binding of peptide to mAb 735 in competitive ELISA (percentage of binding): 9 ± 0%
mAb 735; peptide 2.86 10^−9 M, + chondroitin sulfate C
  Binding of peptide to mAb 735 in competitive ELISA (percentage of binding): 2 ± 0%
mAb 735; peptide 2.86 10^−9 M, + colominic acid 1 mM
  Binding of peptide to mAb 735 in competitive ELISA (percentage of binding): 0 ± 0%
mAb 735; peptide 2.86 10^−9 M, no competitor
  Binding of peptide to mAb 735 in competitive ELISA (percentage of binding): 0 ± 0%
mAb 735; peptide 2.94 10^−6 M, + chondroitin sulfate C
  Binding of peptide to mAb 735 in competitive ELISA (percentage of binding): 3 ± 1%
mAb 735; peptide 2.94 10^−6 M, + colominic acid 1 mM
  Binding of peptide to mAb 735 in competitive ELISA (percentage of binding): 0 ± 0%
mAb 735; peptide 2.94 10^−6 M, no competitor
  Binding of peptide to mAb 735 in competitive ELISA (percentage of binding): 1 ± 0%
mAb 735; peptide 5.04 10^−10 M, + chondroitin sulfate C
  Binding of peptide to mAb 735 in competitive ELISA (percentage of binding): 2 ± 0%
mAb 735; peptide 5.04 10^−10 M, + colominic acid 1 mM
  Binding of peptide to mAb 735 in competitive ELISA (percentage of binding): 0 ± 0%
mAb 735; peptide 5.04 10^−10 M, no competitor
  Binding of peptide to mAb 735 in competitive ELISA (percentage of binding): 0 ± 0%
mAb 735; peptide 5.20 10^−7 M, + chondroitin sulfate C
  Binding of peptide to mAb 735 in competitive ELISA (percentage of binding): 2 ± 0%
mAb 735; peptide 5.20 10^−7 M, + colominic acid 1 mM
  Binding of peptide to mAb 735 in competitive ELISA (percentage of binding): 0 ± 0%
mAb 735; peptide 5.20 10^−7 M, no competitor
  Binding of peptide to mAb 735 in competitive ELISA (percentage of binding): 0 ± 0%
mAb 735; peptide 8.89 10^−11 M, + chondroitin sulfate C
  Binding of peptide to mAb 735 in competitive ELISA (percentage of binding): 2 ± 0%
mAb 735; peptide 8.89 10^−11 M, + colominic acid 1 mM
  Binding of peptide to mAb 735 in competitive ELISA (percentage of binding): 0 ± 0%
mAb 735; peptide 8.89 10^−11 M, no competitor
  Binding of peptide to mAb 735 in competitive ELISA (percentage of binding): 0 ± 0%
mAb 735; peptide 9.27 10^−8 M, + chondroitin sulfate C
  Binding of peptide to mAb 735 in competitive ELISA (percentage of binding): 2 ± 1%
mAb 735; peptide 9.27 10^−8 M, + colominic acid 1 mM
  Binding of peptide to mAb 735 in competitive ELISA (percentage of binding): 0 ± 0%
mAb 735; peptide 9.27 10^−8 M, no competitor
  Binding of peptide to mAb 735 in competitive ELISA (percentage of binding): 0 ± 0%
mAb 735; peptide 9.45 10^−5 M, + chondroitin sulfate C
  Binding of peptide to mAb 735 in competitive ELISA (percentage of binding): 29 ± 0%
mAb 735; peptide 9.45 10^−5 M, + colominic acid 1 mM
  Binding of peptide to mAb 735 in competitive ELISA (percentage of binding): 27 ± 0%
mAb 735; peptide 9.45 10^−5 M, no competitor
  Binding of peptide to mAb 735 in competitive ELISA (percentage of binding): 32 ± 1%
mAb 735; [1]
  Binding of peptide to mAb 735: no binding
  Effect of colominic acid or chondroitin sulfate C on binding to mAb 735: no differences were observed
